Reference: patent US9248109B2, “High penetration prodrug compositions of peptides and peptide-related compounds” (priority 2009, dated 2016)
Structures can show the parent of a compound that is named as a salt. Non-standard residues stand in square brackets, D forms with d. Residues, ends and D or L forms follow the SMILES beside them. *: point of attachment. Arg(NO2) = N=C(NCCC[C@H](N)C(=O)O)N[N+](=O)[O-]; X1 = CCCCO*

Columns and labels:
Sprague Dawley rats = test: Anti-obese activity, transdermal, female Sprague Dawley rats 15 weeks old (first experiment); format: in vivo, rat; conditions: for Weight (g) (Day 1): baseline; for effect on body weights of rats (in words): 10, 1 or 0.3 mg/kg transdermal twice per day for 30 days; for effect on food intakes and body weights (in words): administrated transdermally, as low as 0.3 mg/kg in rat, SD rats and DB/DB mice
Procedure: In a first experiment, 40 female Sprague Dawley rats (15 weeks old, 318-346 g) were divided into 4 groups. In group A, 0.2 ml of water was administered to the back of rat (n=10) twice per day for 30 days. In Groups B, C, and D, 10 mg/kg, 1 mg/kg, or 0.3 mg/kg of H-Val-Pro-Gly-Pro-Arg(NO2)—OCH(CH3)2.HCl(SEQ ID NO: 197) in 0.2 ml of water was administered transdermally to the back of rat (n=10) twice per day for 30 days respectively.
In a first experiment, 40 female Sprague Dawley (SD) rats (15 weeks old, 315-340 g) were divided into 4 groups. In group A, 0.2 ml of water was administered to the back of rat (n=10) twice per day for 30 days. In Groups B, C, and D, 10 mg/kg, 1 mg/kg, or 0.3 mg/kg of H-Val-Pro-Gly-Pro-Arg(diAc)-OCH2CH2CH2CH3.HCl(SEQ ID NO: 198) in 0.2 ml of water was administered transdermally to the back of rat (n=10) twice per day for 30 days respectively.
In a first experiment, 40 female Sprague Dawley (SD) rats (15 weeks old, 320-345 g) were divided into 4 groups. In group A, 0.2 ml of water was administered to the back of rat (n=10) twice per day for 30 days. In Groups B, C, and D, 10 mg/kg, 1 mg/kg, or 0.3 mg/kg of H-Ala-Pro-Gly-Pro-Arg(NO2)—OCH2CH2CH2CH3.HCl(SEQ ID NO: 199) in 0.2 ml of water was administered transdermally to the back of rat (n=10) twice per day for 30 days respectively.
In a first experiment, 40 female Sprague Dawley (SD) rats (15 weeks old, 320-350 g) were divided into 4 groups. In group A, 0.2 ml of water was administered to the back of rat (n=10) twice per day for 30 days. In Groups B, C, and D, 10 mg/kg, 1 mg/kg, or 0.3 mg/kg of H-Val-Pro-Asp(OEt)-Pro-Arg(NO2)—OCH2CH2CH2CH3.HCl(SEQ ID NO: 200) in 0.2 ml of water was administered transdermally to the back of rat (n=10) twice per day for 30 days respectively.

[1] = tested on: young Sprague Dawley rats; test: Anti-obese activity, transdermal, young female Sprague Dawley rats (second experiment); format: in vivo, rat; conditions: for effect on overweight of young rats (in words): 10, 1 or 0.3 mg/kg transdermal twice per day for 30 days; for Food intake (per day & per rat) / Weight (g) (Day 30) / Weight (g) (Day 1): young rats; for Weight (g) (Day 1): baseline
Procedure: In a second experiment, 40 young female Sprague Dawley (SD) rats (180-225 g) were divided into 4 groups. In group A, 0.2 ml of water was administered to the back of rat (n=10) twice per day for 30 days. In Groups B, C, and D, 10 mg/kg, 1 mg/kg, or 0.3 mg/kg of H-Val-Pro-Gly-Pro-Arg(NO2)—OCH(CH3)2.HCl(SEQ ID NO: 197) in 0.2 ml of water were administered transdermally to the backs of rats (n=10) twice per day for 30 days respectively.
In a second experiment, 40 young female Sprague Dawley (SD) rats (180-230 g) were divided into 4 groups. In group A, 0.2 ml of water was administered to the back of rat (n=10) twice per day for 30 days. In Groups B, C, and D, 10 mg/kg, 1 mg/kg, or 0.3 mg/kg of H-Val-Pro-Gly-Pro-Arg(diAc)-OCH2CH2CH2CH3.HCl(SEQ ID NO: 198) in 0.2 ml of water were administered transdermally to the backs of rats (n=10) twice per day for 30 days.
In a second experiment, 40 young female Sprague Dawley (SD) rats (182-223 g) were divided into 4 groups. In group A, 0.2 ml of water was administered to the back of rat (n=10) twice per day for 30 days. In Groups B, C, and D, 10 mg/kg, 1 mg/kg, or 0.3 mg/kg of H-Ala-Pro-Gly-Pro-Arg(NO2)—OCH2CH2CH2CH3.HCl(SEQ ID NO: 199) in 0.2 ml of water was administered transdermally to the backs of rats (n=10) twice per day for 30 days respectively.
In a second experiment, 40 young female Sprague Dawley (SD) rats (185-220 g) were divided into 4 groups. In group A, 0.2 ml of water was administered to the back of rat (n=10) twice per day for 30 days. In Groups B, C, and D, 10 mg/kg, 1 mg/kg, or 0.3 mg/kg of H-Val-Pro-Asp(OEt)-Pro-Arg(NO2)-OCH2CH2CH2CH3.HCl(SEQ ID NO: 200) in 0.2 ml of water were administered transdermally to the backs of rats (n=10) twice per day for 30 days.

[2] = 0.3 mg/kg transdermal twice per day for 30 days
[3] = 0.3 mg/kg transdermal twice per day
[4] = 1 mg/kg transdermal twice per day for 30 days
[5] = 1 mg/kg transdermal twice per day
[6] = 10 mg/kg transdermal twice per day for 30 days
[7] = 10 mg/kg transdermal twice per day

Row | Compound | Food intake (per day & per rat) (Sprague Dawley rats; [2]) | Weight (g) (Day 30) (Sprague Dawley rats; [2]) | Weight (g) (Day 1) (Sprague Dawley rats; [3]) | Food intake (per day & per rat) (Sprague Dawley rats; [4]) | Weight (g) (Day 30) (Sprague Dawley rats; [4]) | Weight (g) (Day 1) (Sprague Dawley rats; [5]) | Food intake (per day & per rat) (Sprague Dawley rats; [6]) | Weight (g) (Day 30) (Sprague Dawley rats; [6]) | Weight (g) (Day 1) (Sprague Dawley rats; [7]) | effect on body weights of rats (in words) (Sprague Dawley rats) | effect on food intakes and body weights (in words) (Sprague Dawley rats) | effect on overweight of young rats (in words) [1] | Food intake (per day & per rat) [1, 2] | Weight (g) (Day 30) [1, 2] | Weight (g) (Day 1) [1, 3] | Food intake (per day & per rat) [1, 4] | Weight (g) (Day 30) [1, 4] | Weight (g) (Day 1) [1, 5] | Food intake (per day & per rat) [1, 6] | Weight (g) (Day 30) [1, 6] | other results
1 | CCCCOC(=O)[C@H](CCCNC(=N)N[N+](=O)[O-])NC(=O)[C@@H]1CCCN1C(=O)[C@H](CC(=O)OCC)NC(=O)[C@@H]1CCCN1C(=O)[C@@H](N)C(C)C [H-Val-Pro-Asp(OEt)-Pro-Arg(NO2)—OCH2CH2CH2CH3.HCl] (H-VPD(OEt)P[Arg(NO2)]-X1) | 22.7 ± 2.5 | 333.1 ± 3.9 | 333.5 ± 7.1 | 21.9 ± 2.7 | 326.8 ± 2.8 | 329.8 ± 7.8 | 20.1 ± 3.2 | 318.1 ± 3.9 | 330.5 ± 8.2 | reduced body weights of rats effectively | reduced food intake and body weights | controlled overweight of rats effectively | 22.7 ± 2.9 | 336.6 ± 5.8 | 192.1 ± 4.6 | 21.3 ± 2.1 | 325.4 ± 4.9 | 193.2 ± 4.7 | 20.4 ± 2.7 | 315.4 ± 6.7 | Weight (g) (Day 1) [1, 7]: 191.2 ± 5.2 g
2 | CC(C)OC(=O)[C@H](CCCNC(=N)N[N+](=O)[O-])NC(=O)[C@@H]1CCCN1C(=O)CNC(=O)[C@@H]1CCCN1C(=O)[C@@H](N)C(C)C [H-Val-Pro-Gly-Pro-Arg(NO2)-OCH(CH3)2•HCl, H-Val-Pro-Gly-Pro-Arg(NO2)—OCH(CH3)2.HCl] (HELM PEPTIDE1{V.P.G.P.[N=C(NCCC[C@H](N[*:1])C(=O)[*:2])N[N+](=O)[O-]].[CC(C)O[*:1]]}$$$$V2.0) | 22.1 ± 2.5 | 322.1 ± 4.3 | 335.4 ± 5.2 | 21.1 ± 2.7 | 313.7 ± 5.1 | 333.1 ± 5.1 | 19.9 ± 2.9 | 308.4 ± 4.5 | 331.7 ± 6.2 | reduced body weights of rats effectively | reduced food intakes and body weights | controlled overweight of young rats effectively | 21.8 ± 2.7 | 327.2 ± 3.8 | 195.1 ± 5.5 | 20.1 ± 2.8 | 323.1 ± 4.5 | 191.6 ± 4.7 | 19.8 ± 3.3 | 307.4 ± 5.7 | Weight (g) (Day 1) [1, 7]: 192.7 ± 6.2 g
3 | H-Val-Pro-Gly-Pro-Arg(diAc)-OCH2CH2CH2CH3.HCl | 23.0 ± 1.7 | 347.1 ± 5.7 | 333.1 ± 6.1 | 21.9 ± 1.9 | 336.7 ± 5.6 | 331.6 ± 6.6 | 20.9 ± 2.2 | 329.2 ± 4.8 | 334.1 ± 7.5 | reduced body weights of rats effectively | reduced food intakes and body weights | controlled overweight of young rats effectively | 23.7 ± 2.9 | 346.2 ± 4.8 | 191.1 ± 4.8 | 22.1 ± 2.8 | 334.1 ± 4.9 | 190.6 ± 5.7 | 20.8 ± 2.8 | 317.4 ± 6.4 | Weight (g) (Day 1) [1, 7]: 191.7 ± 4.6 g
4 | CCCCOC(=O)[C@H](CCCNC(=N)N[N+](=O)[O-])NC(=O)[C@@H]1CCCN1C(=O)CNC(=O)[C@@H]1CCCN1C(=O)[C@H](C)N [H-Ala-Pro-Gly-Pro-Arg(NO2)—OCH2CH2CH2CH3.HCl] (HELM PEPTIDE1{A.P.G.P.[N=C(NCCC[C@H](N[*:1])C(=O)[*:2])N[N+](=O)[O-]].[CCCCO[*:1]]}$$$$V2.0) | 22.7 ± 1.8 | 335.1 ± 4.8 | 335.1 ± 6.2 | 21.8 ± 2.3 | 323.7 ± 4.4 | 333.6 ± 7.8 | 20.8 ± 2.4 | 315.4 ± 3.8 | 332.2 ± 7.4 | reduced body weights of rats effectively | reduced food intakes and body weights | controlled overweight of rats effectively | 21.3 ± 2.2 | 326.2 ± 4.8 | 194.1 ± 4.5 | 20.3 ± 2.7 | 321.7 ± 4.0 | 192.6 ± 4.1 | 19.5 ± 2.3 | 305.4 ± 4.7 | Weight (g) (Day 1) [1, 7]: 193.7 ± 4.2 g
